Source: US20250145665A1, “MACROCYCLIC PEPTIDES USEFUL AS MODULATORS OF TNF ALPHA” (Bristol-Myers Squibb Company, priority 2023, published 2025)
Where two headings read alike, the source gives them in different places. Starred links: 1 amine or outer side, 2 acyl side, 3 side chain; linkers in the order of their positions; H or OH if unused. Positions of bridges follow the written chain, without caps; N, C: chain ends. Non-standard residues stand in square brackets, D forms with d. Residues, ends and D or L forms follow the SMILES beside them. *: point of attachment. Bip(4'-NHCO-C6H4-3-CH2COOH) = N[C@@H](Cc1ccc(-c2ccc(NC(=O)c3cccc(CC(=O)O)c3)cc2)cc1)C(=O)O; X65 = O=C(O)Cc1cccc(NC(=O)c2ccc(-c3ccc(C[C@H](N[*:1])C(=O)[*:2])cc3)cc2)c1; X5 = Cn1nc(C(=O)Nc2ccc(-c3ccc(C[C@H](N[*:1])C(=O)[*:2])cc3)cc2)c2ccccc21; dArg(ω-(2S)-2,3-diOHpropyl) = N=C(NCCC[C@@H](N)C(=O)O)NC[C@H](O)CO; Bip(4'-NH) = O=C([C@H](Cc1ccc(-c2ccc(N[*:3])cc2)cc1)N[*:1])[*:2]; Bip(4'-CONHMe) = CNC(=O)c1ccc(-c2ccc(C[C@H](N)C(=O)O)cc2)cc1; Indazole3carbonyl(1-CH2COOH) = O=C(O)Cn1nc(C(=O)*)c2ccccc21; Bip(4'-COOH) = N[C@@H](Cc1ccc(-c2ccc(C(=O)O)cc2)cc1)C(=O)O; Bip(4'-NHAc) = CC(=O)Nc1ccc(-c2ccc(C[C@H](N)C(=O)O)cc2)cc1; X30 = N#Cc1ccc(CCNC(=N)NCCC[C@@H](N[*:1])C(=O)[*:2])cc1; Ala(morpholin-4-yl) = N[C@@H](CN1CCOCC1)C(=O)O; Phe(3-CONH2) = NC(=O)c1cccc(C[C@H](N)C(=O)O)c1; X12 = N=C(NCCO)NCCC[C@@H](N[*:1])C(=O)[*:2]; Bip = N[C@@H](Cc1ccc(-c2ccccc2)cc1)C(=O)O; Cha = N[C@@H](CC1CCCCC1)C(=O)O; Chg = N[C@H](C(=O)O)C1CCCCC1; Sar = CNCC(=O)O

Target: TNFα (Homo sapiens, UniProt P01375)
Experiment: TNF-Induced HEK-Blue Assay
Format: cell-based
[1] = HEK-Blue-CD40L cells, NF-kB-driven secreted alkaline phosphatase reporter, TNFα 0.5 ng/ml, 18 h, read-out: TNF induced HEK-Blue assay IC50 value

Sequence of TNFα (P01375 77-233 limits assumed): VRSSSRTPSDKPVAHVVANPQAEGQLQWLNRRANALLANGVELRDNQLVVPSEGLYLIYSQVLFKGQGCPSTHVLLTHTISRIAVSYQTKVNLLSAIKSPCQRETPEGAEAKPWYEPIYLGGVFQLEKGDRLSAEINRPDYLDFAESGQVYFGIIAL

IC50 [1] [nM] | SMILES | IC50 [nM]
< 50 | CC[C@H](C)[C@@H]1NC(=O)[C@@H](CCCNC(=N)N)NC(=O)[C@H](CC(=O)O)NC(=O)[C@H](Cc2cnc[nH]2)NC(=O)CN(C)C(=O)[C@H](Cc2ccc(-c3ccc(NC(=O)c4cccc(CC(=O)O)c4)cc3)cc2)NC(=O)[C@H](Cc2ccc(-c3ccccc3)cc2)NC(=O)[C@H](CC2CCCCC2)NC(=O)CSC[C@@H](C(=O)NCC(N)=O)NC(=O)[C@H](CC(C)C)NC(=O)[C@H](Cc2cnc[nH]2)NC(=O)[C@H](C(C)C)NC(=O)[C@@H]2CCCN2C1=O [Example 444] ({CH2CO}-[Cha][Bip][Bip(4'-NHCO-C6H4-3-CH2COOH)][Sar]HD[dR]IPVHLCG-NH2; thioether N-13) | 
50 to 200 | CC[C@H](C)[C@@H]1NC(=O)[C@@H](CCCNC(=N)N)NC(=O)[C@H](CC(=O)O)NC(=O)[C@H](Cc2cnc[nH]2)NC(=O)CN(C)C(=O)[C@H](Cc2ccc(-c3ccc(C(=O)Nc4cccc(CC(=O)O)c4)cc3)cc2)NC(=O)[C@H](Cc2ccc(-c3ccc(C(=O)O)cc3)cc2)NC(=O)[C@H](Cc2cccc(C(N)=O)c2)NC(=O)CSC[C@@H](C(=O)NCC(N)=O)NC(=O)[C@H](CC(C)C)NC(=O)[C@H](Cc2cnc[nH]2)NC(=O)[C@H](C(C)C)NC(=O)[C@@H]2CCCN2C1=O [Example 634] ({CH2CO}-[Phe(3-CONH2)][Bip(4'-COOH)][X65][Sar]HD[dR]IPVHLCG-NH2; thioether N-13) | 
200 to 2000 | CC(C)C[C@@H]1NC(=O)[C@H](CCCNC(=N)N)NC(=O)[C@H](C(C)C)NC(=O)[C@H](C(C)C)NC(=O)[C@H](C(C)C)NC(=O)[C@H](CCCNC(=N)N)NC(=O)[C@H](CC(=O)O)NC(=O)[C@@H]2CCCN2C(=O)CN(C)C(=O)[C@H](Cc2ccc(-c3ccccc3)cc2)NC(=O)[C@H](Cc2ccc(-c3ccccc3)cc2)NC(=O)[C@H](Cc2ccccc2)NC(=O)CSC[C@@H](C(=O)NCC(N)=O)NC1=O [Example 17] ({CH2CO}-F[Bip][Bip][Sar]PDRVVVRLCG-NH2; thioether N-13) | 
200 to 2000 | CC(=O)Nc1ccc(-c2ccc(C[C@@H]3NC(=O)[C@H](Cc4ccc(-c5ccccc5)cc4)NC(=O)[C@H](CN4CCOCC4)NC(=O)CSC[C@@H](C(=O)NCC(N)=O)NC(=O)[C@H](CC(C)C)NC(=O)[C@H](Cc4cccc(C(N)=O)c4)NC(=O)[C@H](C4CCCCC4)NC(=O)[C@@H]4CCCN4C(=O)[C@H](C(C)C)NC(=O)[C@@H](CCCNC(=N)N)NC(=O)[C@H](CC(=O)O)NC(=O)[C@@H]4CCCN4C(=O)CN(C)C3=O)cc2)cc1 [Example 312] ({CH2CO}-[Ala(morpholin-4-yl)][Bip][Bip(4'-NHAc)][Sar]PD[dR]VP[Chg][Phe(3-CONH2)]LCG-NH2; thioether N-13) | 

Continued, molecule first:

SMILES | IC50 [1] [nM] | IC50 [nM]
CC(C)C[C@@H]1NC(=O)[C@H](CCCNC(=N)N)NC(=O)[C@H](C(C)C)NC(=O)[C@@H]2CCCN2C(=O)[C@H](C(C)C)NC(=O)[C@@H](CCCNC(=N)NC[C@H](O)CO)NC(=O)[C@H](CC(=O)O)NC(=O)[C@@H]2CCCN2C(=O)CN(C)C(=O)[C@H](Cc2ccc(-c3ccc(NC(=O)c4nn(C)c5ccccc45)cc3)cc2)NC(=O)[C@H](Cc2ccc(-c3ccccc3)cc2)NC(=O)[C@H](CN2CCOCC2)NC(=O)CSC[C@@H](C(=O)NCC(N)=O)NC1=O [Example 476] ({CH2CO}-[Ala(morpholin-4-yl)][Bip][X5][Sar]PD[dArg(ω-(2S)-2,3-diOHpropyl)]VPVRLCG-NH2; thioether N-13) | < 50 | 
CC(C)C[C@@H]1NC(=O)[C@H](CCCNC(=N)N)NC(=O)[C@H](C(C)C)NC(=O)[C@@H]2CCCN2C(=O)[C@H](C(C)C)NC(=O)[C@@H](CCCNC(=N)NCCO)NC(=O)[C@H](CC(=O)O)NC(=O)[C@@H]2CCCN2C(=O)CN(C)C(=O)[C@H](Cc2ccc(-c3ccc(NC(=O)c4nn(C)c5ccccc45)cc3)cc2)NC(=O)[C@H](Cc2ccc(-c3ccccc3)cc2)NC(=O)[C@H](CN2CCOCC2)NC(=O)CSC[C@@H](C(=O)NCC(N)=O)NC1=O [Example 388] ({CH2CO}-[Ala(morpholin-4-yl)][Bip][X5][Sar]PD[X12]VPVRLCG-NH2; thioether N-13) | < 50 | 
CNC(=O)c1ccc(-c2ccc(C[C@@H]3NC(=O)[C@H](CN4CCOCC4)NC(=O)CSC[C@@H](C(=O)NCC(N)=O)NC(=O)[C@H](CC(C)C)NC(=O)[C@H](CCCNC(=N)N)NC(=O)[C@H](C(C)C)NC(=O)[C@@H]4CCCN4C(=O)[C@H](C(C)C)NC(=O)[C@@H](CCCNC(=N)NCCc4ccc(C#N)cc4)NC(=O)[C@H](CC(=O)O)NC(=O)[C@@H]4CCCN4C(=O)CN(C)C(=O)[C@H](Cc4ccc(-c5ccc(NC(=O)c6nn(CC(=O)O)c7ccccc67)cc5)cc4)NC3=O)cc2)cc1 [Example 430] ({CH2CO}-[Ala(morpholin-4-yl)][Bip(4'-CONHMe)][Bip(4'-NH)](Indazole3carbonyl(1-CH2COOH))[Sar]PD[X30]VPVRLCG-NH2; thioether N-13) |  | < 50
